# Data from US6583175B2, “Alkylxanthates and use of alkylxanthates in the integrated pest management” (Council of Scientific & Industrial Research, priority 2001, dated 2003).
# Read-outs that look alike come from different tables or passages of the source.
# Tests used:
# [1] = test system: Spodoptera litura; experiment: Antifeedant activity against late third instar of Spodoptera litura (leaf disk, oral feeding); assay type: in vivo
# [2] = test system: Brine shrimp, Artemia salina; conditions: in vivo
# [3] = test system: Aedes aegypti; assay type: in vivo; conditions: IV instar larvae, 24 hours
# [4] = test system: Helicoverpa armigera; assay type: in vivo; conditions: topical
# [5] = test system: Spodoptera litura; assay type: in vivo; conditions: topical
compound,measurement,setting,value
"C/C=C(\C)C(=O)O[C@H]1C[C@@H](OC(C)=O)[C@@]2(C(=O)OC)CO[C@H]3[C@@H](O)[C@@](C)([C@]45O[C@@]4(C)[C@H]4C[C@@H]5O[C@@H]5OC=C[C@@]54O)[C@H]4[C@]1(CO[C@]4(O)C(=O)OC)[C@@H]32 [Azadiractin, reference compound]",Concentration required for 50% leaf protection EC50 ± S.E.,[1]; in vivo,6.34 ± 1.77 μg/cm^2
"CC[C@@]1(O)C(=O)OCc2c1cc1n(c2=O)Cc2cc3ccccc3nc2-1 [Chamtothecin, reference compound]",LC50 ± S.E.,[2],2.53 ± 0.43 µg/mL
"CCCCOC(=S)SCSC(=S)OCCCC [Methylene bis (n-butylxanthate), Methylene Bis(n-butylxanthate)]",LC50 ± S.E.,[3],5.33 ± 0.97 µg/mL
same,Adult emergence: Abnormal adults,[4]; 20 μg/Insect,41
same,Adult emergence: Intermediates,[4]; 20 μg/Insect,17
same,Adult emergence: Non emergence,[4]; 20 μg/Insect,3
same,Adult emergence: Normal adults,[4]; 20 μg/Insect,27
same,Larval mortality (%),[4]; 20 μg/Insect,7%
same,Pupal Formation: Abnormal pupa,[4]; 20 μg/Insect,36
same,Pupal Formation: Normal pupa,[4]; 20 μg/Insect,52
same,Pupal Formation: Pupal Mortality,[4]; 20 μg/Insect,5
same,Adult emergence: Abnormal adults,[4]; 35 μg/Insect,11
same,Adult emergence: Intermediates,[4]; 35 μg/Insect,18
same,Adult emergence: Non emergence,[4]; 35 μg/Insect,9
same,Adult emergence: Normal adults,[4]; 35 μg/Insect,17
same,Larval mortality (%),[4]; 35 μg/Insect,12%
same,Pupal Formation: Abnormal pupa,[4]; 35 μg/Insect,28
same,Pupal Formation: Normal pupa,[4]; 35 μg/Insect,27
same,Pupal Formation: Pupal Mortality,[4]; 35 μg/Insect,33
same,Adult emergence: Abnormal adults,[4]; 50 μg/Insect,9
same,Adult emergence: Intermediates,[4]; 50 μg/Insect,6
same,Adult emergence: Non emergence,[4]; 50 μg/Insect,21
same,Adult emergence: Normal adults,[4]; 50 μg/Insect,8
same,Larval mortality (%),[4]; 50 μg/Insect,28%
same,Pupal Formation: Abnormal pupa,[4]; 50 μg/Insect,32
same,Pupal Formation: Normal pupa,[4]; 50 μg/Insect,12
same,Pupal Formation: Pupal Mortality,[4]; 50 μg/Insect,28
same,Adult emergence: Abnormal adults,[4]; 75 μg/Insect,1
same,Adult emergence: Intermediates,[4]; 75 μg/Insect,2
same,Adult emergence: Non emergence,[4]; 75 μg/Insect,24
same,Adult emergence: Normal adults,[4]; 75 μg/Insect,0
same,Larval mortality (%),[4]; 75 μg/Insect,49%
same,Pupal Formation: Abnormal pupa,[4]; 75 μg/Insect,27
same,Pupal Formation: Normal pupa,[4]; 75 μg/Insect,0
same,Pupal Formation: Pupal Mortality,[4]; 75 μg/Insect,24
same,Adult emergence: Abnormal adults,[4]; 100 μg/Insect,0
same,Adult emergence: Intermediates,[4]; 100 μg/Insect,2
same,Adult emergence: Non emergence,[4]; 100 μg/Insect,20
same,Adult emergence: Normal adults,[4]; 100 μg/Insect,0
same,Larval mortality (%),[4]; 100 μg/Insect,61%
same,Pupal Formation: Abnormal pupa,[4]; 100 μg/Insect,22
same,Pupal Formation: Normal pupa,[4]; 100 μg/Insect,0
same,Pupal Formation: Pupal Mortality,[4]; 100 μg/Insect,17
same,Adult emergence: Abnormal adults,[5]; 5 μg/Insect,26
same,Adult emergence: Intermediates,[5]; 5 μg/Insect,28
same,Adult emergence: Non-emergence,[5]; 5 μg/Insect,0
same,Adult emergence: Normal adults,[5]; 5 μg/Insect,41
same,Larval mortality (%),[5]; 5 μg/Insect,0%
same,Pupal Formation: Abnormal pupa,[5]; 5 μg/Insect,41
same,Pupal Formation: Normal pupa,[5]; 5 μg/Insect,59
same,Pupal Formation: Pupal Mortality,[5]; 5 μg/Insect,5
same,Adult emergence: Abnormal adults,[5]; 10 μg/Insect,22
same,Adult emergence: Intermediates,[5]; 10 μg/Insect,34
same,Adult emergence: Non-emergence,[5]; 10 μg/Insect,1
same,Adult emergence: Normal adults,[5]; 10 μg/Insect,36
same,Larval mortality (%),[5]; 10 μg/Insect,0%
same,Pupal Formation: Abnormal pupa,[5]; 10 μg/Insect,48
same,Pupal Formation: Normal pupa,[5]; 10 μg/Insect,52
same,Pupal Formation: Pupal Mortality,[5]; 10 μg/Insect,8
same,Adult emergence: Abnormal adults,[5]; 20 μg/Insect,27
same,Adult emergence: Intermediates,[5]; 20 μg/Insect,32
same,Adult emergence: Non-emergence,[5]; 20 μg/Insect,2
same,Adult emergence: Normal adults,[5]; 20 μg/Insect,24
same,Larval mortality (%),[5]; 20 μg/Insect,0%
same,Pupal Formation: Abnormal pupa,[5]; 20 μg/Insect,53
same,Pupal Formation: Normal pupa,[5]; 20 μg/Insect,47
same,Pupal Formation: Pupal Mortality,[5]; 20 μg/Insect,17
same,Adult emergence: Abnormal adults,[5]; 35 μg/Insect,23
same,Adult emergence: Intermediates,[5]; 35 μg/Insect,23
same,Adult emergence: Non-emergence,[5]; 35 μg/Insect,25
same,Adult emergence: Normal adults,[5]; 35 μg/Insect,7
same,Larval mortality (%),[5]; 35 μg/Insect,21%
same,Pupal Formation: Abnormal pupa,[5]; 35 μg/Insect,54
same,Pupal Formation: Normal pupa,[5]; 35 μg/Insect,25
same,Pupal Formation: Pupal Mortality,[5]; 35 μg/Insect,26
same,Adult emergence: Abnormal adults,[5]; 50 μg/Insect,6
same,Adult emergence: Intermediates,[5]; 50 μg/Insect,8
same,Adult emergence: Non-emergence,[5]; 50 μg/Insect,9
same,Adult emergence: Normal adults,[5]; 50 μg/Insect,5
same,Larval mortality (%),[5]; 50 μg/Insect,57%
same,Pupal Formation: Abnormal pupa,[5]; 50 μg/Insect,38
same,Pupal Formation: Normal pupa,[5]; 50 μg/Insect,5
same,Pupal Formation: Pupal Mortality,[5]; 50 μg/Insect,24
same,Adult emergence: Abnormal adults,[5]; 75 μg/Insect,1
same,Adult emergence: Intermediates,[5]; 75 μg/Insect,2
same,Adult emergence: Non-emergence,[5]; 75 μg/Insect,25
same,Adult emergence: Normal adults,[5]; 75 μg/Insect,0
same,Larval mortality (%),[5]; 75 μg/Insect,72%
same,Pupal Formation: Abnormal pupa,[5]; 75 μg/Insect,28
same,Pupal Formation: Normal pupa,[5]; 75 μg/Insect,0
same,Pupal Formation: Pupal Mortality,[5]; 75 μg/Insect,25
same,Adult emergence: Abnormal adults,[5]; 100 μg/Insect,0
same,Adult emergence: Intermediates,[5]; 100 μg/Insect,0
same,Adult emergence: Non-emergence,[5]; 100 μg/Insect,14
same,Adult emergence: Normal adults,[5]; 100 μg/Insect,0
same,Larval mortality (%),[5]; 100 μg/Insect,86%
same,Pupal Formation: Abnormal pupa,[5]; 100 μg/Insect,14
same,Pupal Formation: Normal pupa,[5]; 100 μg/Insect,0
same,Pupal Formation: Pupal Mortality,[5]; 100 μg/Insect,14
same,A.I. (Anti-feedent Index),[1]; 10 μg/sq. cm.,5.50
same,Percent leaf consumption 12 hr,[1]; 10 μg/sq. cm.,48.55%
same,Percent leaf consumption 24 hr,[1]; 10 μg/sq. cm.,85.1%
same,A.I. (Anti-feedent Index),[1]; 15 μg/sq. cm.,22.27
same,Percent leaf consumption 12 hr,[1]; 15 μg/sq. cm.,35.2%
same,Percent leaf consumption 24 hr,[1]; 15 μg/sq. cm.,60.4%
same,A.I. (Anti-feedent Index),[1]; 20 μg/sq. cm.,35.14
same,Percent leaf consumption 12 hr,[1]; 20 μg/sq. cm.,22.5%
same,Percent leaf consumption 24 hr,[1]; 20 μg/sq. cm.,45.6%
same,A.I. (Anti-feedent Index),[1]; 25 μg/sq. cm.,64.22
same,Percent leaf consumption 12 hr,[1]; 25 μg/sq. cm.,3.5%
same,Percent leaf consumption 24 hr,[1]; 25 μg/sq. cm.,20.7%
same,A.I. (Anti-feedent Index),[1]; 30 μg/sq. cm.,85.37
same,Percent leaf consumption 12 hr,[1]; 30 μg/sq. cm.,0%
same,Percent leaf consumption 24 hr,[1]; 30 μg/sq. cm.,7.5%
same,Concentration required for 50% leaf protection EC50 ± S.E.,[1]; late third instar,17.11 ± 1.36 μg/cm^2
